ChEMBL document CHEMBL1201862, “PubChem BioAssay data set” (2004)
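Protocol summary: plate cells (96-well), add compound at 5 concentrations, incubate 48 h, interpolate endpoints linearly. GI50 marks 50% less growth.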 Calls of active or inactive are those of the source. Rule as the data show it: active = GI50 up to about 1.1 µM and inactive = higher.

Key:
Assay in all cases: NCI tumour cell line growth inhibition, 48 h
SW-620 = tested on: SW-620
UO-31 = tested on: UO-31
OVCAR-8 = tested on: OVCAR-8
SF-539 = tested on: SF-539
SNB-75 = tested on: SNB-75
OVCAR-5 = tested on: OVCAR-5
SK-MEL-2 = tested on: SK-MEL-2
HOP-92 = tested on: HOP-92
CCRF-CEM = tested on: CCRF-CEM
SNB-19 = tested on: SNB-19
HCT-15 = tested on: HCT-15
M14 = tested on: M14
UACC-257 = tested on: UACC-257
EKVX = tested on: EKVX
MDA-MB-435 = tested on: MDA-MB-435
HT-29 = tested on: HT-29
UACC-62 = tested on: UACC-62
DU-145 = tested on: DU-145
NCI-H522 = tested on: NCI-H522
RPMI-8226 = tested on: RPMI-8226
NCI-H226 = tested on: NCI-H226
SR = tested on: SR
T47D = tested on: T47D
HOP-62 = tested on: HOP-62
BT-549 = tested on: BT-549
NCI-H460 = tested on: NCI-H460
HCC 2998 = tested on: HCC 2998
A498 = tested on: A498
LOX IMVI = tested on: LOX IMVI
SK-OV-3 = tested on: SK-OV-3
Malme-3M = tested on: Malme-3M
SF-295 = tested on: SF-295
NCI-H23 = tested on: NCI-H23
SK-MEL-5 = tested on: SK-MEL-5
SF-268 = tested on: SF-268
RXF 393 = tested on: RXF 393
COLO 205 = tested on: COLO 205
TK-10 = tested on: TK-10
IGROV-1 = tested on: IGROV-1
KM12 = tested on: KM12
MDA-N = tested on: MDA-N
MCF7 = tested on: MCF7
U-251 = tested on: U-251
Hs-578T = tested on: Hs-578T
NCI/ADR-RES = tested on: NCI/ADR-RES
OVCAR-4 = tested on: OVCAR-4
MDA-MB-231 = tested on: MDA-MB-231
786-0 = tested on: 786-0
CAKI-1 = tested on: CAKI-1
ACHN = tested on: ACHN
PC-3 = tested on: PC-3
MOLT-4 = tested on: MOLT-4
K562 = tested on: K562
SN12C = tested on: SN12C
OVCAR-3 = tested on: OVCAR-3
HCT-116 = tested on: HCT-116
SK-MEL-28 = tested on: SK-MEL-28
A549 = tested on: A549

Measured: GI50

O=C(O)CC1(CC(=O)O)Nc2ccccc2SC1=O
> 100 µM: HCT-15
inactive: SW-620 > 100 µM | UO-31 > 100 µM | OVCAR-8 > 100 µM | SNB-75 > 100 µM | OVCAR-5 > 100 µM | SK-MEL-2 > 100 µM | HOP-92 > 100 µM | CCRF-CEM > 100 µM | SNB-19 > 100 µM | M14 > 100 µM | UACC-257 > 100 µM | EKVX > 100 µM | MDA-MB-435 > 100 µM | HT-29 > 100 µM | UACC-62 > 100 µM | DU-145 > 100 µM | NCI-H522 > 100 µM | RPMI-8226 > 100 µM | NCI-H226 > 100 µM | SR > 100 µM | T47D > 100 µM | HOP-62 > 100 µM | BT-549 > 100 µM | NCI-H460 > 100 µM | HCC 2998 > 100 µM | A498 > 100 µM | LOX IMVI > 100 µM | SK-OV-3 > 100 µM | Malme-3M > 100 µM | SF-295 > 100 µM | NCI-H23 > 100 µM | SK-MEL-5 > 100 µM | SF-268 > 100 µM | RXF 393 > 100 µM | COLO 205 > 100 µM | TK-10 > 100 µM | IGROV-1 > 100 µM | KM12 > 100 µM | MDA-N > 100 µM | MCF7 > 100 µM | U-251 > 100 µM | Hs-578T > 100 µM | NCI/ADR-RES > 100 µM | OVCAR-4 > 100 µM | MDA-MB-231 > 100 µM | 786-0 > 100 µM | CAKI-1 > 100 µM | ACHN > 100 µM | PC-3 > 100 µM | MOLT-4 > 100 µM | K562 > 100 µM | SN12C > 100 µM | OVCAR-3 > 100 µM | HCT-116 > 100 µM | SK-MEL-28 > 100 µM | A549 > 100 µM
active: SF-539 0.0904 µM
